Measurements: PubChem BioAssay (NCI)
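Assay format: 96-well plates, 48-hour exposure. TGI is the concentration that stops growth completely.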

Experiments:
Assay in all cases: DTP human tumour cell line panel, 48 h
HCT-116 colon = tested on: HCT-116 colon
MDA-MB-231 breast = tested on: MDA-MB-231 breast
T-47D breast = tested on: T-47D breast
EKVX NSCLC = tested on: EKVX NSCLC
LOX IMVI melanoma = tested on: LOX IMVI melanoma
DU-145 prostate = tested on: DU-145 prostate
MOLT-4 leukemia = tested on: MOLT-4 leukemia
SF-295 CNS = tested on: SF-295 CNS
HOP-62 NSCLC = tested on: HOP-62 NSCLC
MDA-MB-435 = tested on: MDA-MB-435
NCI-H460 lung = tested on: NCI-H460 lung
NCI-H226 lung = tested on: NCI-H226 lung
OVCAR-3 ovarian = tested on: OVCAR-3 ovarian
RXF 393 renal = tested on: RXF 393 renal
K-562 leukemia = tested on: K-562 leukemia
IGROV1 ovarian = tested on: IGROV1 ovarian
UACC-62 melanoma = tested on: UACC-62 melanoma
ACHN renal = tested on: ACHN renal
SK-OV-3 ovarian = tested on: SK-OV-3 ovarian
SNB-75 CNS = tested on: SNB-75 CNS

| Structure (SMILES) | TGI (HCT-116 colon) [nM] | TGI (MDA-MB-231 breast) [nM] | TGI (T-47D breast) [nM] | TGI (EKVX NSCLC) [nM] | TGI (LOX IMVI melanoma) [nM] | TGI (DU-145 prostate) [nM] | TGI (MOLT-4 leukemia) [nM] | TGI (SF-295 CNS) [nM] | TGI (HOP-62 NSCLC) [nM] | TGI (MDA-MB-435) [nM] | TGI (NCI-H460 lung) [nM] | TGI (NCI-H226 lung) [nM] | TGI (OVCAR-3 ovarian) [nM] | TGI (RXF 393 renal) [nM] | TGI (K-562 leukemia) [nM] | TGI (IGROV1 ovarian) [nM] | TGI (UACC-62 melanoma) [nM] | TGI (ACHN renal) [nM] | TGI (SK-OV-3 ovarian) [nM] | TGI (SNB-75 CNS) [nM] |
| --- | --- | --- | --- | --- | --- | --- | --- | --- | --- | --- | --- | --- | --- | --- | --- | --- | --- | --- | --- | --- |
| CN1C2CCC1CC(C)(O)C2 (centres undefined) | > 100000 | > 100000 | > 100000 | > 100000 | > 100000 | > 100000 | > 100000 | > 100000 | > 100000 | > 100000 | > 100000 | > 100000 | > 100000 | > 100000 | > 100000 |  |  |  |  |  |
| O=C(N/N=C/c1cc(Br)cc(Br)c1[O-])c1ccccc1O.O=C(N/N=C/c1cc(Br)cc(Br)c1[O-])c1ccccc1O.[Cu+2] |  |  |  |  | 1610 |  | 2540 | 1240 | 845 |  | 13600 | 1980 | 702 | 926 | 213 | 1060 | 551 | 2420 | 1120 | 1990 |
